Results as given in patent publication US20240042065A1, “THERANOSTIC AGENTS” (priority 2022, published 2024).

Assay: NMR relaxivity studies (R1 relaxivity)
Type: physicochemical
Conditions: Gd(III) complexes of DTPA analogues
Protocol: The potential of L1 and L2 to be used in magnetic resonance imaging/Optical Imaging (MRI/OI) was evaluated by measuring their (a) thermodynamic stability by stability constants with potentiometric titrations; (b) R1 relaxivities by NMR relaxivity studies and (c) spectrophotometric (luminescence) investigations.
The diagnostic moiety of the theranostic agent of the present invention enhances MR images when the patient is subjected to the magnetic field of the MR scanning machine by altering the T1 relaxation of local water protons. The paramagnetic relaxation of water protons arises as a result of dipole-dipole interactions between the proton nuclear spins and that of the oscillating magnetic field of MR machine caused by the interaction with the unpaired electron spins of paramagnetic metal ion in the complex, under pulse of radio frequency. The overall paramagnetic water proton relaxation rate enhancement (i.e. proton relaxivity) is governed by two factors, namely inner sphere and outer sphere contributions. […] This profile measures molecular dynamics taking place within the said complex understudy in a quantitative manner in the time scales of milliseconds to nanoseconds. […]

relaxivity (in words): high relaxivity
Compound: O=C(O)CN(CCN(CCN(CC(=O)O)CC(=O)O)CCN1C(=O)c2cccc3cccc(c23)C1=O)CC(=O)O [Type A]
